According to US20240262815A1, “HETEROARYL DERIVATIVE, METHOD FOR PREPARING SAME, AND PHARMACEUTICAL COMPOSITION COMPRISING SAME AS ACTIVE INGREDIENT” (VORONOI INC., priority 2021, published 2024):

What was measured:
BT-474 cancer cells = assay: Inhibitory activity against proliferation of BT-474 cancer cells (CellTiter-Glo); assay type: cell-based; details: Homo sapiens, BT-474 ErbB2-overexpressing cancer cells, 120 hours after treatment
Protocol: To evaluate the inhibitory activity of a compound according to the present invention against the proliferation of ErbB2-overexpressing cancer cells, the following experiment were performed.
10% FBS-added McCOY'S 5A was used for SK-BR-3 cancer cells. 20% FBS-added RPMI-1640 was used for BT-474 cancer cells. Transduced Ba/F3 cells were cultured in a RPMI-1640 medium to which 1 μg/ml puromycin (Invitrogen) was added.
48 hours before compound treatment, each type of the SK-BR-3 and BT-474 cells were seeded at 5,000 cells/well in a white clear bottom 96 well plate (Corning). The compound was diluted in dimethyl sulfoxide (SK-BR-3: 3-fold dilution, a total of 12 concentrations, BT-474: […], a total of 12 concentrations) and injected at 1 μl to have the final concentration of 0.2 nM to 5 μM. As for measurement of live cells, 120 hours after treatment with the compound, a CellTiter-Glo luminescent cell-viability reagent (Promega) was used to store the cells at room temperature for 10 minutes, followed by measurement of luminescence using a reader (SynergyNeo, Biotek). Each test was repeated three times.
The result values were calculated as a cell growth rate (%) compared to the control group. A graph was plotted using the GraphPad Prism version 8.3.0 program, and GI50 values were calculated.

SK-BR-3 cancer cells = assay: Inhibitory activity against proliferation of SK-BR-3 cancer cells (CellTiter-Glo); assay type: cell-based; details: Homo sapiens, SK-BR-3, 120 h, ErbB2-overexpressing SK-BR-3 cells, 120 hours after treatment
Outline: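 GI50 derived from % growth relative to control, measured by CellTiter-Glo luminescence after 120 h compound exposure (12 concentrations, 0.2 nM-5 μM final, n=3). BT-474 grown in RPMI-1640/20% FBS, SK-BR-3 in McCOY'S 5A/10% FBS; seeding 48 h pre-treatment.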

SMILES | GI50 (BT-474 cancer cells) [nM] | GI50 (SK-BR-3 cancer cells) [nM]
C=CC(=O)Nc1cc(Nc2cc(N3OCC[C@@H]3c3cccc(OCc4ccccc4)c3)ncn2)c(OC)cc1N(C)CCN(C)C [Example 227, (R)-N-(5-((6-(3-(3-(benzyloxy)-phenyl)isoxazol-idin-2-yl)pyrim-idin-4-yl)amino)-2-((2-(dimethyl-amino)ethyl)-(methyl)amino)-4-methoxyphen-yl)acrylamide] | < 50 | < 50
C=CC(=O)Nc1cc(Nc2cc(N3OCC[C@@H]3c3cccc(OCc4cccc(F)c4)c3)ncn2)c(OC)cc1N(C)CCN(C)C [Example 228, (R)-N-(2-((2-(dimethylamino)-ethyl)(methyl)-amino)-5-((6-(3-(3-((3-fluorobenz-yl)oxy)phenyl)-isoxazolidin-2-yl)-pyrimidin-4-yl)-amino)-4-methoxy-phenyl)acrylamide] | < 50 | < 50
C=CC(=O)Nc1cc(Nc2cc(N3OCC[C@@H]3c3cccc(-c4ccccc4)c3)ncn2)c(OC)cc1N1CCC(N2CCN(C3CC3)[C@@H](C)C2)CC1 [Example 231, N-(5-((6-((R)-3-([1,1′-biphenyl]-3-yl)isoxazolidin-2-yl)pyrimidin-4-yl)amino)-2-(4-((S)-4-cycloprop-yl-3-methylpiper-azin-1-yl)piperidin-1-yl)-4-methoxy-phenyl)acrylamide] | < 50 | < 50
C=CC(=O)Nc1cc(Nc2cc(N3OCCC3c3cccc(-c4cnn(C)c4)c3)ncn2)c(OC)cc1N(C)CCN(C)C (centres unmarked) [Example 233, N-(2-((2-(dimeth-ylamino)ethyl)-(methyl)amino)-4-methoxy-5-((6-(3-(3-(1-methyl-1H-pyrazol-4-yl)phen-yl)isoxazolidin-2-yl)pyrimidin-4-yl)amino)phenyl)-acrylamide] | < 50 | < 50
C=CC(=O)Nc1cc(Nc2cc(N3OCC[C@@H]3c3cccc(-c4cccc(F)c4)c3)ncn2)c(OC)cc1N1CCN(C)CC1 [Example 242, (R)-N-(5-((6-(3-(3′-fluoro-[1,1′-biphen-yl]-3-yl)isoxazol-idin-2-yl)pyrim-idin-4-yl)amino)-4-methoxy-2-(4-methylpiperazin-1-yl)phenyl)-acrylamide] | < 50 | < 50
C=CC(=O)Nc1cc(Nc2cc(N3OCC[C@@H]3c3cccc(C(=O)NC(C)C)c3)ncn2)c(OC)cc1N1CCC(N2CCN(C3CC3)CC2)CC1 [Example 253, (R)-3-(2-(6-((5-acrylamido-4-(4-(4-cyclopropyl-piperazin-1-yl)-piperidin-1-yl)-2-methoxyphenyl)-amino)pyrimidin-4-yl)isoxazolidin-3-yl)-N-isopropyl-benzamide] | < 50 | < 50
C=CC(=O)Nc1cc(Nc2cc(N3OCCC3c3cccc(-c4cc(F)cc(F)c4)c3)ncn2)c(OC)cc1N(C)CCN(C)C (centres unmarked) [Example 265, N-(5-((6-(3-(3′,5′-difluoro-[1,1′-biphenyl]-3-yl)-isoxazolidin-2-yl)-pyrimidin-4-yl)-amino)-2-((2-(dimethylamino)-ethyl)(methyl)-amino)-4-meth-oxyphenyl)acryl-amide] | < 50 | < 50
C=CC(=O)Nc1cc(Nc2cc(N3OCC[C@@H]3c3cccc(-c4cc(F)cc(F)c4)c3)ncn2)c(OC)cc1N1CCC(N2CCN(C3CC3)[C@@H](C)C2)CC1 [Example 274, N-(2-(4-((S)-4-cyclopropyl-3-methylpiperazin-1-yl)piperidin-1-yl)-5-((6-((R)-3-(3′,5′-difluoro-[1,1′-biphenyl]-3-yl)isoxazolidin-2-yl)pyrimidin-4-yl)amino)-4-meth-oxyphenyl)acryl-amide] | < 50 | < 50
C=CC(=O)Nc1cc(Nc2cc(N3OCC[C@@H]3c3cccc(-c4cc(F)cc(F)c4)c3)ncn2)c(OC)cc1N1CCN(C(C)=O)CC1 [Example 275, (R)-N-(2-(4-acetyl-piperazin-1-yl)-5-((6-(3-(3′,5′-difluoro-[1,1′-biphenyl]-3-yl)-isoxazolidin-2-yl)-pyrimidin-4-yl)-amino)-4-meth-oxyphenyl)acryl-amide] | < 50 | < 50
C=CC(=O)Nc1cc(Nc2cc(N3OCC[C@@H]3c3cccc(-c4cc(F)cc(F)c4)c3)ncn2)c(OC)cc1N1CCN(C)CC1 [Example 276, (R)-N-(5-((6-(3-(3′,5′-difluoro-[1,1′-biphenyl]-3-yl)isoxazolidin-2-yl)pyrimidin-4-yl)-amino)-4-methoxy-2-(4-methylpiper-azin-1-yl)phenyl)-acrylamide] | < 50 | < 50
C=CC(=O)Nc1cc(Nc2cc(N3OCC[C@@H]3c3cccc(-c4cc(F)cc(F)c4)c3)ncn2)c(OC)cc1N1CCN(CCC)CC1 [Example 278, (R)-N-(5-((6-(3-(3′,5′-difluoro-[1,1′-biphenyl]-3-yl)isoxazolidin-2-yl)pyrimidin-4-yl)-amino)-4-methoxy-2-(4-propylpiper-azin-1-yl)phenyl)-acrylamide] | < 50 | < 50
C=CC(=O)Nc1cc(Nc2cc(N3OCC[C@@H]3c3cccc(-c4ccc(F)cc4F)c3)ncn2)c(OC)cc1N(C)CCN(C)C [Example 279, (R)-N-(5-((6-(3-(2′,4′-difluoro-[1,1′-biphenyl]-3-yl)isoxazolidin-2-yl)pyrimidin-4-yl)amino)-2-((2-(dimethylamino)-ethyl)(methyl)-amino)-4-methoxy-phenyl)acrylamide] | < 50 | < 50
C=CC(=O)Nc1cc(Nc2cc(N3OCC[C@@H]3c3cccc(-c4cccc(C(F)(F)F)c4F)c3)ncn2)c(OC)cc1N(C)CCN(C)C [Example 280, (R)-N-(2-((2-(dimethylamino)-ethyl)(methyl)-amino)-5-((6-(3-(2′-fluoro-3′-(trifluoromethyl)-[1,1′-biphenyl]-3-yl)isoxazolidin-2-yl)pyrimidin-4-yl)-amino)-4-methoxy-phenyl)acrylamide] | < 50 | < 50
C=CC(=O)Nc1cc(Nc2cc(N3OCC[C@@H]3c3cccc(-c4ccc(F)cc4F)c3)ncn2)c(OC)cc1N1CCN(C)CC1 [Example 281, (R)-N-(5-((6-(3-(2′,4′-difluoro-[1,1′-biphenyl]-3-yl)isoxazolidin-2-yl)pyrimidin-4-yl)-amino)-4-methoxy-2-(4-methylpiper-azin-1-yl)phenyl)-acrylamide] | < 50 | < 50
C=CC(=O)Nc1cc(Nc2cc(N3OCC[C@@H]3c3cccc(-c4cccc(C(F)(F)F)c4F)c3)ncn2)c(OC)cc1N1CCN(C)CC1 [Example 282, (R)-N-(5-((6-(3-(2′-fluoro-3′-(tri-fluoromethyl)-[1,1′-biphenyl]-3-yl)isoxazolidin-2-yl)pyrimidin-4-yl)-amino)-4-methoxy-2-(4-methylpiper-azin-1-yl)phenyl)-acrylamide] | < 50 | 50 to 500
C=CC(=O)Nc1cc(Nc2cc(N3OCC[C@@H]3c3cccc(-c4cc(F)cc(C(F)(F)F)c4)c3)ncn2)c(OC)cc1N1CCN(C)CC1 [Example 283, (R)-N-(5-((6-(3-(3′-fluoro-5′-(trifluoromethyl)-[1,1′-biphenyl]-3-yl)isoxazolidin-2-yl)pyrimidin-4-yl)-amino)-4-methoxy-2-(4-methylpiper-azin-1-yl)phenyl)-acrylamide] | < 50 | 50 to 500
